Results on five compounds are retold here after patent US20210255193A1, “LYSINE REACTIVE PROBES AND USES THEREOF” (The Scripps Research Institute, priority 2017, published 2021).

Assay in all cases: competitive isoTOP-ABPP
Type in all cases: binding

Assay [1] addresses T1, LDHB L-lactate dehydrogenase B chain (Homo sapiens, UniProt P07195).
T1 construct: isoTOP-ABPP experiments performed in cell lysates (in vitro); endogenous in cells; host or cells: MDA-MB-231 soluble lysate
The note with it: for R value (DMSO/fragment) for probe 1 labeling: 231 sol. In outline:
(§1)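 Here, isoTOP-ABPP measures loss of STP-alkyne labeling at individual lysines after fragment exposure in lysate. Activated esters are dosed at 50 μM, guanidinylating agents at 100 μM; the probe follows at 0.1 mM for 1 h. R ≥4 marks a liganded lysine.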

Assay [2] addresses T2, NLN Neurolysin, mitochondrial (Homo sapiens, UniProt Q9BYT8).
T2 construct: isoTOP-ABPP experiments performed in cell lysates (in vitro); endogenous in cells; host or cells: soluble proteome of human cancer cell lines (MDA-MB-231; Ramos and Jurkat also prepared)
The note with it: for isoTOP-ABPP ratio (R) at liganded lysine Q9BYT8_K253: sol, 231. The procedure, abridged:
as §1

Assay [3] has as its target T3, ERO1L ERO1-like protein alpha (Homo sapiens, UniProt Q96HE7).
T3 construct: isoTOP-ABPP experiments performed in cell lysates (in vitro); endogenous in cells; host or cells: soluble proteome of human cancer cell lines (MDA-MB-231; Ramos and Jurkat also prepared)
T3 sequence (Q96HE7 24-468): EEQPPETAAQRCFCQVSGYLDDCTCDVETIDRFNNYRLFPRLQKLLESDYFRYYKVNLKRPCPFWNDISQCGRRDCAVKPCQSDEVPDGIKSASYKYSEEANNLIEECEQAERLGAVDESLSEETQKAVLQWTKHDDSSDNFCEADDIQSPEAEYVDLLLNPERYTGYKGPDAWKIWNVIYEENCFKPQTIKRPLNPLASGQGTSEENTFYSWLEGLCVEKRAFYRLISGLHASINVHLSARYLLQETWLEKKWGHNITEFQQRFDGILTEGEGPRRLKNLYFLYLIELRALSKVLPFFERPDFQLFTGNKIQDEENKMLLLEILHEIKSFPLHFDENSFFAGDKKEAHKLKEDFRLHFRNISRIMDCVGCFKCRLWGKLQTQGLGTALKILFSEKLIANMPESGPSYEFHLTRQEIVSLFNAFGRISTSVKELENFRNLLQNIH
The note with it: for isoTOP-ABPP ratio (R) at liganded lysine Q96HE7_K413: sol, 231; for isoTOP-ABPP ratio, lysine Q96HE7_K413: possible other lysine Q86YB8_K412. The procedure, abridged:
as §1

For assay [4], the target named is T4, SMPD1 Sphingomyelin phosphodiesterase (Homo sapiens, UniProt P17405).
T4 construct: isoTOP-ABPP experiments performed in cell lysates (in vitro); endogenous in cells; host or cells: soluble proteome of human cancer cell lines (MDA-MB-231; Ramos and Jurkat also prepared)
T4 sequence (P17405 47-631): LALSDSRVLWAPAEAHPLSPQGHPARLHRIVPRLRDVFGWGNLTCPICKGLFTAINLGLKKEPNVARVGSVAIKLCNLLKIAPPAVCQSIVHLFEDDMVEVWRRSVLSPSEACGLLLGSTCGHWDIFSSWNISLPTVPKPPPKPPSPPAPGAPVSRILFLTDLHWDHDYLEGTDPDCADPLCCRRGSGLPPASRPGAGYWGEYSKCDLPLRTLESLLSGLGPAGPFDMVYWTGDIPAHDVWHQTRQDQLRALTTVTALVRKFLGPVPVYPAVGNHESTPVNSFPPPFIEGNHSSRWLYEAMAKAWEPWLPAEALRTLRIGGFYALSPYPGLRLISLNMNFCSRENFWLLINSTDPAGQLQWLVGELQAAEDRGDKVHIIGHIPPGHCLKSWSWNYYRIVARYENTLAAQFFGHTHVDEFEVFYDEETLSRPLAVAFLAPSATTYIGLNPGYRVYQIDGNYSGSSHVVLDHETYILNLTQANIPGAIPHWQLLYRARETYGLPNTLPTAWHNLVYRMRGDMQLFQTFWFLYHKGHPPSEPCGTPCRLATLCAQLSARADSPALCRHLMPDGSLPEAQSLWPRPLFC
To be noted: for isoTOP-ABPP ratio (R) at liganded lysine P17405_K118: sol, 231. The procedure, abridged:
as §1

The structures appear in SMILES notation.

T1 sequence (P07195 whole entry): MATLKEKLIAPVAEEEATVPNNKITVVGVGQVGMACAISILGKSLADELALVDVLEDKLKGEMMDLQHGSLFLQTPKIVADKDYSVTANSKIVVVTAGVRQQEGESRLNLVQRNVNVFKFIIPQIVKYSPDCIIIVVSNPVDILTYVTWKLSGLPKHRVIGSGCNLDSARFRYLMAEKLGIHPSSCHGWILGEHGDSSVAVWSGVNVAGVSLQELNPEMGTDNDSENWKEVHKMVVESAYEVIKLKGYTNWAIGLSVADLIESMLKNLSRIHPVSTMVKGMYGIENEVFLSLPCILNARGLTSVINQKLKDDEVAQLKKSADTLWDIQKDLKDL
T2 sequence (Q9BYT8 38-704): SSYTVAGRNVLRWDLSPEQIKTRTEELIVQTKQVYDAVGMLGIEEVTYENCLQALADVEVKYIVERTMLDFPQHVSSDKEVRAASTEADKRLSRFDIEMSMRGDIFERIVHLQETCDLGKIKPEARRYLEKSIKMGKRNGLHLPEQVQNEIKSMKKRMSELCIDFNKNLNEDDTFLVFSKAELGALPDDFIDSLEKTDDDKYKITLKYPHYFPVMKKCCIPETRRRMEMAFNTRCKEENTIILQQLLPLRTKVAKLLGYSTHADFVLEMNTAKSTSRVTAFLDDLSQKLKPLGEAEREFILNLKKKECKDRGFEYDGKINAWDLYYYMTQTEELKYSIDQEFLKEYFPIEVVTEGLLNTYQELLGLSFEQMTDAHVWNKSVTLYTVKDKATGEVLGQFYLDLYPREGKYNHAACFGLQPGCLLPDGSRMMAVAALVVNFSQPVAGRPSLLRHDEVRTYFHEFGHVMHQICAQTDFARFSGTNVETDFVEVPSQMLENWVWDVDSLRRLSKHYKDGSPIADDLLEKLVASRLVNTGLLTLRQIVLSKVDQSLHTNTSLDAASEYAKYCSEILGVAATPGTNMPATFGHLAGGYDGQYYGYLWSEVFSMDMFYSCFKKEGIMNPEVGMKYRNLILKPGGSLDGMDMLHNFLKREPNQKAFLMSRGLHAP

Consider `O=C(Oc1c(F)c(F)c(F)c(F)c1F)C(c1ccccc1)c1ccccc1` [fragment 20, Pentafluorophenyl 2,2-diphenylacetate], for which the “R value (DMSO/fragment) for probe 1 labeling” value in assay [1] (P07195_K82, 50 uM, in vitro) came out at 1.2; in assay [1] (P07195_K244, 50 uM, in vitro), 1.0; in assay [2] (Q9BYT8_K253, 50 uM, 231 sol, in vitro) it was 0.9; in assay [3] (Q96HE7_K413, 50 uM, 231 sol, in vitro), 0.9; in assay [4] (P17405_K118, 50 uM, 231 sol, in vitro), 1.4.

As for `O=C(Oc1ccc([N+](=O)[O-])cc1[N+](=O)[O-])c1ccc2ccccc2n1` [fragment 35, 2,4-Dinitrophenyl quinoline-2-carboxylate], the “isoTOP-ABPP ratio (R) at liganded lysine P07195_K82” value in assay [1] (50 uM, in vitro, sol, 231) is 0.6. Also, in assay [2] (50 uM, in vitro), the “isoTOP-ABPP ratio (R) at liganded lysine Q9BYT8_K253” value is 1.1. Further, the “isoTOP-ABPP ratio (R) at liganded lysine Q96HE7_K413” value in assay [3] (50 uM, in vitro) is listed as 2.2. The “isoTOP-ABPP ratio (R) at liganded lysine P17405_K118” value in assay [4] (50 uM, in vitro) was determined as 1.4.

With `CC(C)(C)OC(=O)NCCCC(=O)Oc1ccc([N+](=O)[O-])cc1[N+](=O)[O-]` [fragment 41, 2,4-Dinitrophenyl 4-((tert-butoxycarbonyl)amino)butanoate], the “isoTOP-ABPP ratio (R) at liganded lysine P07195_K244” value in assay [1] (50 uM, in vitro, sol, 231) turned out to be 20.0. For the same compound, the “isoTOP-ABPP ratio (R) at liganded lysine Q9BYT8_K253” value in assay [2] (50 uM, in vitro) is on record as 1.3. In addition, the “isoTOP-ABPP ratio (R) at liganded lysine Q96HE7_K413” value in assay [3] (50 uM, in vitro) was determined as 1.7. The “isoTOP-ABPP ratio (R) at liganded lysine P17405_K118” value in assay [4] (50 uM, in vitro) is reported as 1.5.

In the case of `O=C(ON1C(=O)CCC1=O)c1cc(C(F)(F)F)cc(C(F)(F)F)c1` [fragment 46, 3,5-Bis(trifluoromethyl)benzoic acid NHS ester], in assay [1] (50 uM_231_sol_in vitro), the “isoTOP-ABPP ratio, lysine P07195_K82” value is on record as 0.7 and the “isoTOP-ABPP ratio, lysine P07195_K244” value came out at 0.8. Also, the “isoTOP-ABPP ratio, lysine Q9BYT8_K253” value in assay [2] (50 uM_231_sol_in vitro) was found to be 1.5. Besides, in assay [3] (50 uM_231_sol_in vitro), the “isoTOP-ABPP ratio, lysine Q96HE7_K413” value is given as 6.5. Also, the “isoTOP-ABPP ratio, lysine P17405_K118” value in assay [4] (50 uM_231_sol_in vitro) came to 0.7.

For `CC(C)(C)OC(=O)N=C(NC(=O)OC(C)(C)C)n1cccn1` [fragment 50, reference compound], in assay [1] (100 uM_231_sol_in vitro), the “isoTOP-ABPP ratio, lysine P07195_K82” value came to 0.9 and the “isoTOP-ABPP ratio, lysine P07195_K244” value was 1.1. The “isoTOP-ABPP ratio, lysine Q9BYT8_K253” value in assay [2] (100 uM_231_sol_in vitro) came to 1.2. Also, in assay [3] (100 uM_231_sol_in vitro), the “isoTOP-ABPP ratio, lysine Q96HE7_K413” value was determined as 1.4. For the same compound, in assay [4] (100 uM_231_sol_in vitro), the “isoTOP-ABPP ratio, lysine P17405_K118” value was 1.3.
